Measurements from patent publication US10954221B2, “GLP-1R agonists and uses thereof” (QILU REGOR THERAPEUTICS INC., priority 2019, dated 2021).

Tests used:
[1] = target: T1, GLP1R (Homo sapiens, UniProt P43220); assay: β-Arrestin-mediated GLP1R internalization assay (PathHunter U2OS cells); assay type: cell-based; design: host or cells: PathHunter engineered U2OS cells; details: averaged Bmax where applicable, Percentage of Control GLP-1 (7-37), top 10 μM, 180 min
Outline: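 PathHunter U2OS cells co-express untagged GLP1R, EA-tagged β-arrestin and an endosome-localized PK tag, so internalization gives β-galactosidase complementation. Agonist (top final concentration 10 μM) applied for 180 min at 37 °C, then chemiluminescence read after 60 min detection. EC50 from 4-parameter logistic fits.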
Target sequence in this assay (P43220 24-463): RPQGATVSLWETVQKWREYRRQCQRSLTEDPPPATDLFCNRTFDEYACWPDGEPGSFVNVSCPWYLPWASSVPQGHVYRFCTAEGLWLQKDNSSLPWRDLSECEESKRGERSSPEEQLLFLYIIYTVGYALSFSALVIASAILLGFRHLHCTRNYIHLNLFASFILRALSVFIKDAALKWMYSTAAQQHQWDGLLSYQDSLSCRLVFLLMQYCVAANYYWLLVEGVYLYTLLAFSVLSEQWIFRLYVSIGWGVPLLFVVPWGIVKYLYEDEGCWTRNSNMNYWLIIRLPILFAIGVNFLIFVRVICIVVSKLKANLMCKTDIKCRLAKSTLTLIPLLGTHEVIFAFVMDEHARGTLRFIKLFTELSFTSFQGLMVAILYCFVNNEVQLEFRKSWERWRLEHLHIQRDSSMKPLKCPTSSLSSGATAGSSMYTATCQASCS
Target sequence in this assay (P32121 whole entry partner): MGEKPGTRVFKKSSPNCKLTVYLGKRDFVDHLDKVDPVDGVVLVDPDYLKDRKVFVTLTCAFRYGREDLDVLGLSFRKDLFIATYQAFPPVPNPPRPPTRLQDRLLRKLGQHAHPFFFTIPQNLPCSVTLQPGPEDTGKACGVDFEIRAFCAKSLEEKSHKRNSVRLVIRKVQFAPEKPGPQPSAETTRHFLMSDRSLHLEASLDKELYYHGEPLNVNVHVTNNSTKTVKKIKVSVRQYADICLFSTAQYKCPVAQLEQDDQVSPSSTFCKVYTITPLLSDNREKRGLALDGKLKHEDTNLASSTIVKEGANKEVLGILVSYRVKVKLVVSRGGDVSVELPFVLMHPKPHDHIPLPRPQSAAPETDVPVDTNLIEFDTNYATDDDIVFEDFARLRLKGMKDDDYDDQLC

[2] = target: T1, GLP1R; assay: GLP1R cAMP assay (HTRF), HEK293/GLP-1R/CRE/Luc, Clone 4
Target sequence in this assay (P43220 24-463): as the sequence (P43220 24-463) above

[3] = target: T1, GLP1R; assay: cAMP assay in CHO cells stably expressing hGLP-1R; assay type: cell-based; design: expressed in transfected cells; host or cells: CHO cells stably transfected; details: CHO cells stably expressing hGLP-1R (Table 2), read-out: CHO cAMP stable EC50
Description: GLP-1R-mediated agonist activity was determined with a cell-based functional assay utilizing an HTRF (Homogeneous Time-Resolved Fluorescence) cAMP detection kit (cAMP Dynamic 2 Assay Kit; CisBio cat #62AM4PEC) that measures cAMP levels in the cell. The method is a competitive immunoassay between native cAMP produced by the cells and exogenous cAMP labeled with the dye d2. The tracer binding is visualized by a mAb anti-cAMP labeled with Cryptate. The specific signal (i.e., energy transfer) is inversely proportional to the concentration of cAMP in either standard or experimental sample.
Following the 30 minute incubation, 5 μL of labeled d2 cAMP and 5 μL of anti-cAMP antibody (both diluted 1:20 in cell lysis buffer; as described in the manufacturer's assay protocol) were added to each well of the assay plate. […] Raw data were converted to nM cAMP by interpolation from a cAMP standard curve (as described in the manufacturer's assay protocol) and the percent effect was determined relative to a saturating concentration of the full agonist GLP-17-37 (10 nM) included on each plate. EC50 determinations were made from agonist dose-response curves analyzed with a curve fitting program using a 4-parameter logistic dose response equation. […]
Target sequence in this assay (P43220 24-463): as above

[4] = target: T1, GLP1R; design: Emax: dose or concentration left out as unconfirmed; details: CHO-K1, […], read-out: β-arrestin recruitment Bmax (%)
Target sequence in this assay (P43220 24-463): as above
Target sequence in this assay (P32121 whole entry partner): as the sequence (P32121 whole entry partner) above
Description: Frozen cells were quickly thawed and 10 mL of cell plating medium (provided by the kit) was added to thawed cells. Cells were stored in a 37° C. incubator under 5% CO2 and kept for approximately 48 hours until ready to run the assay.
Reference and test compounds were dissolved in 100% DMSO. […] 5 μL of this solution was added to 20 μL cell medium in assay plate for a final top concentration of 10 μM. Plates were then incubated at 37° C. under 5% CO2 for 90 min.
Following 90 min incubation, detection reagents were made up by combining 1 part Galacton Star Substrate with 5 parts Emerald II™ Solution, and 19 parts of PathHunter Cell Assay Buffer, respectively. 12.5 μl detection reagent was added to each well. The plates were then incubated at room temperature in dark for 60 min. Plates were then read on Envision for 0.1 sec/well.
Cells were plated at a density of 1000 or 2000 cells/20 μL/well. Frozen cells were quickly thawed and added to 10 mL of cell plating medium. Cells were stored in a 37 degree incubator under 5% CO2 and left for approximately 48 hours until ready to run the assay
Prepare 10× concentration of an agonist in serum free DMEM, and add all solutions into the compound plate. 2.5 μL of this solution was added to 20 μL cell medium in assay plate for a final top concentration of 10 μM. Plates were incubated at 37° C. under 5% CO2 for 30 min. An additional 2.5 μL of Buffer was added to the entire plate for agonist mode and incubated at 37° C. for another 90 min.
Following 90 min incubation, detection reagents were made up as described. 12.5 μL was added to all wells. The plates were then incubated at room temperature in dark for 60 min. Plates were then read on Envision for 0.1 sec/well.
Data analysis: GraphPad Prism 6 was used for establishment of progression curve. EC50s or IC50s were determined by 4-parameter logistic dose response equation.

β-arrestin internalization Bmax (POC) [1] [POC] | EC50 [2] [nM] | EC50 [3] [nM] | Emax [4] [%] | SMILES
26.7 | < 15 | < 15 | 35.6 ± 3.9 | O=C(O)c1ccc2nc(Cc3cc(F)c(-c4cccc(OCc5ncc(Cl)cc5F)n4)cc3F)n(C[C@@H]3CCO3)c2n1 [Compound 276, (S)-2-(4-(6-((5-chloro-3-fluoropyridin-2-yl)methoxy)pyridin-2-yl)-2,5-difluorobenzyl)-3-(oxetan-2-ylmethyl)-3H-imidazo[4,5-b]pyridine-5-carboxylic acid]
36.5 | < 15 | < 15 | 36.2 ± 5.56 | N#Cc1cnc(COc2cccc(-c3cc(F)c(Cc4nc5ccc(C(=O)O)nc5n4C[C@@H]4CCO4)cc3F)n2)c(F)c1 [Compound 278, (S)-2-(4-(6-((5-cyano-3-fluoropyridin-2-yl)methoxy)pyridin-2-yl)-2,5-difluorobenzyl)-3-(oxetan-2-ylmethyl)-3H-imidazo[4,5-b]pyridine-5-carboxylic acid]
29.6 | < 15 | < 15 | 42.2 ± 2.68 | N#Cc1ccc(COc2cccc(-c3cc(F)c(Cc4nc5ccc(C(=O)O)nc5n4C[C@@H]4CCO4)cc3F)n2)c(F)c1 [Compound 292, (S)-2-(4-(6-((4-cyano-2-fluorobenzyl)oxy)pyridin-2-yl)-2,5-difluorobenzyl)-3-(oxetan-2-ylmethyl)-3H-imidazo[4,5-b]pyridine-5-carboxylic acid]
28.4 | < 15 | < 15 | 39.2 ± 4.75 | O=C(O)c1ccc2nc(Cc3cc(F)c(-c4cccc(OCc5ccc(-n6ccnc6)cc5)n4)cc3F)n(C[C@@H]3CCO3)c2n1 [Compound 303, (S)-2-(4-(6-(4-(1H-imidazol-1-yl)benzyloxy)pyridin-2-yl)-2,5-difluorobenzyl)-3-(oxetan-2-ylmethyl)-3H-imidazo[4,5-b]pyridine-5-carboxylic acid]
26.7 ± 4.53 | < 15 | < 15 | 38.8 ± 7.09 | O=C(O)c1ccc2nc(Cc3ccc(-c4nccc(OCc5ccc(Cl)cc5F)n4)cc3F)n(C[C@@H]3CCO3)c2c1F [Compound 311, (S)-2-(4-(4-((4-chloro-2-fluorobenzyl)oxy)pyrimidin-2-yl)-2-fluorobenzyl)-7-fluoro-1-(oxetan-2-ylmethyl)-1H-benzo[d]imidazole-6-carboxylic acid]
45.2 | < 15 | < 15 | 33.4 ± 2.13 | N#Cc1ccc(COc2nc(-c3ccc(Cc4nc5ccc(C(=O)O)c(F)c5n4C[C@@H]4CCO4)c(F)c3)ncc2F)c(F)c1 [Compound 312, (S)-2-(4-(4-((4-cyano-2-fluorobenzyl)oxy)-5-fluoropyrimidin-2-yl)-2-fluorobenzyl)-7-fluoro-1-(oxetan-2-ylmethyl)-1H-benzo[d]imidazole-6-carboxylic acid]
